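Dose response: 5 concentrations. Exposure: 48 h. Format: 96-well plates. Endpoint: linear interpolation; highest concentration if not reached. TGI denotes the concentration required for complete inhibition of growth.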
Experiments:
Assay in all cases: NCI-60 cell line screen, 48 h
[1] = system: NCI-H23 lung
[2] = system: MCF7 breast
[3] = system: NCI-H460 lung
[4] = system: SF-295 CNS
[5] = system: NCI/ADR-RES ovarian
[6] = system: ACHN renal
[7] = system: OVCAR-4 ovarian
[8] = system: UACC-257 melanoma
[9] = system: MDA-MB-231 breast
[10] = system: A498 renal

With `O=C(O)C(CO)NC(=O)C1C(C(=O)O)C(c2ccccc2[N+](=O)[O-])C=C(c2ccco2)N1c1ccncc1` (stereo not drawn) the TGI [1] was 19.9 µM, the TGI [2] was 5.63 µM and the TGI [3] was 18.5 µM. It also gave a TGI [4] of 19 µM, a TGI [5] of 59 µM and a TGI [6] of 3.67 µM. It also gave a TGI [7] of 25.3 µM, a TGI [8] of 9.9 µM and a TGI [9] of 7.56 µM. It also gave a TGI [10] of 24.8 µM.
Work on `CCOC(=O)/C=C1/Nc2cc(F)c(F)cc2NC1=O` yielded a TGI [1] greater than 100 µM, a TGI [2] greater than 100 µM and a TGI [3] greater than 100 µM. For the same molecule, the TGI [4] was greater than 100 µM, the TGI [5] was greater than 100 µM and the TGI [6] was greater than 100 µM. For the same molecule, the TGI [7] was greater than 100 µM, the TGI [8] was greater than 100 µM and the TGI [9] was greater than 100 µM.
`Cc1oc2c(C)c3oc(=O)cc(C)c3cc2c1CN` showed a TGI [1] greater than 100 µM, a TGI [3] greater than 100 µM and a TGI [4] greater than 100 µM. It also gave a TGI [6] greater than 100 µM, a TGI [7] greater than 100 µM and a TGI [8] greater than 100 µM. It also gave a TGI [10] greater than 100 µM.
With `CC(C)C(/C=C/c1ccccc1)=N\NC(=S)NN` the TGI [1] was greater than 100 µM, the TGI [2] was greater than 76.6 µM and the TGI [3] was greater than 100 µM. It also gave a TGI [4] greater than 100 µM, a TGI [5] greater than 100 µM and a TGI [6] greater than 100 µM. It also gave a TGI [7] greater than 100 µM, a TGI [8] greater than 100 µM and a TGI [9] greater than 100 µM. For the same molecule, the TGI [10] was greater than 100 µM.
Molecule `CC(C)(C)c1cc(C2NC(=O)NC2=O)cc(C(C)(C)C)c1O` (stereo not drawn) has a TGI [1] greater than 100 µM, a TGI [2] of 83.3 µM and a TGI [4] greater than 100 µM. The TGI [5] was greater than 100 µM, the TGI [6] was greater than 100 µM and the TGI [7] was greater than 100 µM. For the same molecule, the TGI [9] was greater than 100 µM and the TGI [10] was greater than 100 µM.
Work on `C/C(=N\NC(=O)N/N=C(\C)c1ccccn1)c1ccccn1` yielded a TGI [2] greater than 100 µM, a TGI [3] greater than 100 µM and a TGI [4] greater than 100 µM. The TGI [5] was 93.6 µM, the TGI [6] was greater than 100 µM and the TGI [7] was greater than 100 µM. For the same molecule, the TGI [8] was greater than 100 µM and the TGI [10] was greater than 100 µM.
Molecule `NC(=S)N/N=C(\C(=O)Nc1ccc(Cl)c(Cl)c1)C1=NN(c2ccccc2)C(c2cccc([N+](=O)[O-])c2)CC1=O` (stereo not drawn) has a TGI [1] of 46.9 µM, a TGI [3] greater than 100 µM and a TGI [4] of 57.2 µM. For the same molecule, the TGI [6] was greater than 100 µM, the TGI [7] was 63 µM and the TGI [8] was 83.1 µM. The TGI [10] was greater than 100 µM.
`Cc1ccc(C2(c3ccc(C)c(O)c3C)CCN(C)CC2)c(C)c1O` showed a TGI [1] greater than 100 µM, a TGI [3] greater than 100 µM and a TGI [4] greater than 100 µM. It also gave a TGI [5] greater than 100 µM, a TGI [6] greater than 100 µM and a TGI [7] greater than 100 µM. The TGI [8] was 35.3 µM, the TGI [9] was greater than 100 µM and the TGI [10] was greater than 100 µM.
In the case of `OCCNc1nc2c(N3CCCC3)nc(N3CCNCC3)nc2nc1NCc1ccccc1`, the TGI [1] is reported as 34.2 µM, the TGI [2] is reported as 28.3 µM and the TGI [3] is reported as 29.9 µM. The TGI [4] was 32.7 µM, the TGI [5] was greater than 100 µM and the TGI [6] was 28.9 µM. The TGI [7] was 32.2 µM, the TGI [8] was 33.5 µM and the TGI [9] was 29.4 µM.
In the case of `C/C(=N\n1c(Cc2ccccc2)n[nH]c1=O)c1ccc([N+](=O)[O-])cc1`, the TGI [1] is reported as greater than 100 µM, the TGI [2] is reported as greater than 100 µM and the TGI [3] is reported as greater than 100 µM. The TGI [4] was greater than 100 µM, the TGI [5] was greater than 100 µM and the TGI [7] was greater than 100 µM. For the same molecule, the TGI [8] was greater than 100 µM and the TGI [9] was greater than 100 µM.
Molecule `O=[N+]([O-])c1ccc(Cl)cc1N/N=C/c1cccs1` has a TGI [1] greater than 100 µM, a TGI [2] greater than 100 µM and a TGI [3] greater than 100 µM. It also gave a TGI [4] greater than 100 µM, a TGI [5] greater than 100 µM and a TGI [6] greater than 100 µM. The TGI [7] was greater than 100 µM, the TGI [8] was greater than 100 µM and the TGI [9] was greater than 100 µM.
`CC(=O)N1C(OCc2ccccc2)CCN1c1ccccc1` (stereo not drawn) gave a TGI [1] greater than 10 µM, a TGI [3] greater than 10 µM and a TGI [4] greater than 10 µM. For the same molecule, the TGI [5] was greater than 10 µM, the TGI [6] was greater than 10 µM and the TGI [7] was greater than 10 µM. It also gave a TGI [8] greater than 10 µM and a TGI [9] greater than 10 µM.
`Cn1c(=O)c2[nH]c(-n3nc(-c4ccccc4)cc3N)nc2n(C)c1=O` was tested, and the TGI [2] was greater than 100 µM, the TGI [3] was greater than 100 µM and the TGI [4] was greater than 100 µM. The TGI [5] was 14.2 µM, the TGI [6] was 37 µM and the TGI [7] was 93.5 µM. It also gave a TGI [9] greater than 100 µM and a TGI [10] of 27.9 µM.
`O=c1c(S(=O)(=O)Oc2ccccc2)coc2cc(F)ccc12` showed a TGI [1] greater than 100 µM, a TGI [2] greater than 100 µM and a TGI [3] greater than 100 µM. It also gave a TGI [4] greater than 100 µM, a TGI [5] greater than 100 µM and a TGI [6] greater than 100 µM. It also gave a TGI [7] greater than 100 µM, a TGI [8] greater than 100 µM and a TGI [9] greater than 100 µM.
`CCc1cc2c(oc3c4ccccc4ccc23)c(=O)[nH]1` was tested, and the TGI [1] was greater than 10 µM, the TGI [2] was greater than 10 µM and the TGI [3] was greater than 10 µM. It also gave a TGI [4] greater than 10 µM, a TGI [6] greater than 10 µM and a TGI [7] greater than 10 µM. The TGI [8] was greater than 10 µM.
Work on `Cc1ccsc1/C=N/Nc1ccccn1` yielded a TGI [1] greater than 100 µM, a TGI [2] greater than 100 µM and a TGI [4] greater than 100 µM. The TGI [5] was greater than 100 µM, the TGI [6] was greater than 100 µM and the TGI [7] was greater than 100 µM. For the same molecule, the TGI [8] was greater than 100 µM, the TGI [9] was greater than 100 µM and the TGI [10] was greater than 100 µM.
`S=C1CSc2c(cnc3ccccc23)N1` was tested, and the TGI [1] was greater than 100 µM, the TGI [2] was greater than 100 µM and the TGI [3] was greater than 100 µM. For the same molecule, the TGI [4] was greater than 100 µM, the TGI [5] was greater than 100 µM and the TGI [6] was greater than 100 µM. It also gave a TGI [7] greater than 100 µM, a TGI [8] greater than 100 µM and a TGI [9] greater than 100 µM.
With `Cc1ccc(CC(=O)Nc2ccc(NC(=O)CNC(=O)/C=C/c3ccc(-c4ccccc4)cc3)cc2C(=O)c2ccccc2)cc1` the TGI [1] was 4.71 µM, the TGI [2] was 3.69 µM and the TGI [3] was 11.1 µM. For the same molecule, the TGI [4] was 4.86 µM, the TGI [5] was 29.8 µM and the TGI [6] was 16.2 µM. It also gave a TGI [8] of 22.7 µM, a TGI [9] of 9.21 µM and a TGI [10] of 8.73 µM.
For `COc1cc(C(CC(OC)OC)=C(C#N)C#N)cc(OC)c1OC`, the TGI [1] was greater than 100 µM, the TGI [3] was 23.4 µM and the TGI [4] was 62.9 µM. It also gave a TGI [6] greater than 100 µM, a TGI [8] of 36.9 µM and a TGI [10] of 40 µM.
For `COc1ccc(N2C(=O)C3c4[nH]c5ccccc5c4C4CCC(C(C)(C)C)CC4C3C2=O)cc1OC` (stereo not drawn), the TGI [1] was greater than 100 µM, the TGI [4] was 42.6 µM and the TGI [6] was 46.6 µM. The TGI [7] was 52.2 µM, the TGI [8] was greater than 100 µM and the TGI [10] was 41.4 µM.
With `O=C(NC(CO)CO)c1ccc2cc(C(=O)N3CC(CCl)c4ccc([N+](=O)[O-])cc43)[nH]c2c1` (stereo not drawn) the TGI [1] was greater than 100 µM, the TGI [2] was greater than 100 µM and the TGI [3] was greater than 100 µM. For the same molecule, the TGI [4] was greater than 100 µM, the TGI [5] was greater than 100 µM and the TGI [6] was greater than 100 µM. The TGI [7] was greater than 100 µM, the TGI [8] was greater than 100 µM and the TGI [9] was greater than 100 µM.
For `c1cn[nH]c1`, the TGI [1] was greater than 10 µM, the TGI [2] was greater than 10 µM and the TGI [3] was greater than 10 µM. It also gave a TGI [4] greater than 10 µM, a TGI [5] greater than 10 µM and a TGI [6] greater than 10 µM. It also gave a TGI [7] greater than 10 µM and a TGI [10] greater than 10 µM.
In the case of `Clc1ccc(-c2nn3c(C45CC6CC(CC(C6)C4)C5)nnc3s2)cc1`, the TGI [1] is reported as greater than 100 µM, the TGI [3] is reported as greater than 100 µM and the TGI [4] is reported as greater than 100 µM. The TGI [5] was greater than 100 µM, the TGI [6] was greater than 100 µM and the TGI [7] was greater than 100 µM. It also gave a TGI [9] greater than 100 µM and a TGI [10] greater than 100 µM.
Molecule `C/C(=C/c1c(C)[nH]c(=O)[nH]c1=O)C(=O)O` has a TGI [1] greater than 1380 µM, a TGI [2] greater than 1380 µM and a TGI [3] greater than 1380 µM. The TGI [4] was greater than 1380 µM, the TGI [5] was greater than 1380 µM and the TGI [7] was greater than 1380 µM. The TGI [8] was greater than 1380 µM and the TGI [10] was greater than 1380 µM.

From PubChem BioAssay (NCI)
